Reference: patent publication US20250134907A1, “FUSED DIAZEPINES AS AGONISTS OF THE INSULIN-LIKE 3 (INSL3) PEPTIDE RECEPTOR RXFP2 AND METHODS OF USE THEREOF” (The United States of America,as represented by the …, priority 2022, published 2025)

Target: T1, RXFP2 (Homo sapiens, UniProt Q8WXD0)
T1 construct: expressed in transfected cells
Experiment: HTRF cAMP assay in HEK293T cells stably expressing RXFP2 (HEK-RXFP2)
Type: cell-based
Conditions: condition (b): 10,000 cells/well, IBMX 200 μM; for % EFF vs. 1 nM INSL3 (b): normalized to 1 nM INSL3 cAMP response
Protocol: Compound efficacy and EC50 were determined by measuring cAMP induction in vitro. HEK293T cells stably expressing RXFP2 (HEK-RXFP2) produce cAMP when RXFP2 is activated, which can be measured in an antibody-based immunoassay utilizing a fluorescent readout (cAMP Gs HiRange Kit, PerkinElmer, Waltham, MA). HEK-RXFP2 cells were seeded in 96-well plates in serum-free DMEM and incubated overnight at 37° C., 5% CO2. Plates were then treated with a compound titration up to 25 μM or INSL3 control, in the presence of isobutylmethylxanthine phosphodiesterase inhibitor (IBMX) at 200 μM to amplify the cAMP signal, for 1 hour at 37° C., 5% CO2 before being processed as per kit instructions. Table 7 lists the efficacy and EC50 of compounds tested under different experimental conditions. […] In condition (a), 20,000 cells were seeded per well in the 96 well plate, and efficacy was determined by normalizing the maximum compound cAMP response to the 1 nM INSL3 cAMP response (% Efficacy 1 nM INSL3 (a)). In condition (b), 10,000 cells were seeded per well, and compound response was normalized to the 1 nM INSL3 cAMP response (% Efficacy 1 nM INSL3 (b)). In condition (c), 7,500 cells were seeded per well, compound response was normalized to the 100 nM INSL3 cAMP response, and IBMX was omitted (% Efficacy 100 nM INSL3 (c)). A range is given when compounds were tested multiple times. Where compounds were tested under multiple experimental conditions, the EC50 listed for the corresponding condition is marked (a) through (c) to correlate. When EC50 could not be calculated from the dose-response curve, EC50 is listed as not determined (ND).

T1 sequence (Q8WXD0 whole entry): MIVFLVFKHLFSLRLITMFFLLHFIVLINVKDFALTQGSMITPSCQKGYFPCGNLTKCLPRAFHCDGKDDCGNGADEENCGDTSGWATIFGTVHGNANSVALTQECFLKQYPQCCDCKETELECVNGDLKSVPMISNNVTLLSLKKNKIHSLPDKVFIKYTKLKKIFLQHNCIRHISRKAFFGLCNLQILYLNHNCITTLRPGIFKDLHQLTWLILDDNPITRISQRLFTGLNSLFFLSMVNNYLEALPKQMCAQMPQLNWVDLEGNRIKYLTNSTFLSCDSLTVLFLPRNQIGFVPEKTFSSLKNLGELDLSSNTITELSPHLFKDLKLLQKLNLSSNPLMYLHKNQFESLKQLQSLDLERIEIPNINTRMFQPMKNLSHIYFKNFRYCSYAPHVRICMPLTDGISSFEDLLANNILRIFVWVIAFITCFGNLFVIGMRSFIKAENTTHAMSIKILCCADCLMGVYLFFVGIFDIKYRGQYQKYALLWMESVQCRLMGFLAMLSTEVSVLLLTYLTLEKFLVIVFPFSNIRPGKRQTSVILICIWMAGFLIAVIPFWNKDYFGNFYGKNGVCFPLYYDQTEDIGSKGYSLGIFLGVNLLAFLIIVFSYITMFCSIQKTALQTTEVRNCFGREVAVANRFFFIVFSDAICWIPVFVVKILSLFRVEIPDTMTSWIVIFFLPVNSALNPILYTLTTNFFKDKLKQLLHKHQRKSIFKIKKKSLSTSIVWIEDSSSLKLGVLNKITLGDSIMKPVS

SMILES | EC50 [nM] | % EFF vs. 1 nM INSL3 (b)
O=C1Nc2ccc(-c3cc(C(F)(F)F)ccc3F)cc2C(=O)N2CCN(C(=O)COc3ccc(OC(F)(F)F)cc3Cl)C[C@@H]12 [Example 127, (S)-2-(2-(2-chloro-4-(trifluoromethoxy)phenoxy)acetyl)-8-(2-fluoro-5-(trifluoromethyl)phenyl)-1,3,4,12a-tetrahydrobenzo[e]pyrazino[1,2-a][1,4]diazepine-6,12 (2H, 11H)-dione] | 12 | 84.99%
O=C1Nc2ccc(-c3cc(C(F)(F)F)ccc3F)cc2C(=O)N2CCN(C(=O)COc3ccc(OC(F)(F)F)cc3Cl)C[C@H]12 [Example 130, (R)-2-(2-(2-chloro-4-(trifluoromethoxy)phenoxy)acetyl)-8-(2-fluoro-5-(trifluoromethyl)phenyl)-1,3,4,12a-tetrahydrobenzo[e]pyrazino[1,2-a][1,4]diazepine-6,12 (2H, 11H)-dione] |  | 54.37%
O=C1Nc2ccc(-c3cc(C(F)(F)F)ccc3F)cc2C(=O)N2CCN(C(=O)COc3ccc(C(F)(F)F)cc3Cl)C[C@@H]12 [Example 132, (S)-2-(2-(2-chloro-4-(trifluoromethyl)phenoxy)acetyl)-8-(2-fluoro-5-(trifluoromethyl)phenyl)-1,3,4,12a-tetrahydrobenzo[e]pyrazino[1,2-a][1,4]diazepine-6,12 (2H, 11H)-dione] |  | 68.09%
Cc1ccc(C(F)(F)F)cc1-c1ccc2c(c1)C(=O)N1CCN(C(=O)COc3ccc(OC(F)(F)F)cc3Cl)C[C@H]1C(=O)N2 [Example 136, (S)-2-(2-(2-Chloro-4-(trifluoromethoxy)phenoxy)acetyl)-8-(2-methyl-5-(trifluoromethyl)phenyl)-1,3,4,12a-tetrahydrobenzo[e]pyrazino[1,2-a][1,4]diazepine-6,12 (2H, 11H)-dione] | 67 to 89.4 | 92.5-107.57%
Cc1ccc(C(F)(F)F)cc1-c1ccc2c(c1)C(=O)N1CCN(C(=O)COc3ccc(C(F)(F)F)cc3Cl)C[C@H]1C(=O)N2 [Example 137, (S)-2-(2-(2-chloro-4-(trifluoromethyl)phenoxy)acetyl)-8-(2-methyl-5-(trifluoromethyl)phenyl)-1,3,4,12a-tetrahydrobenzo[e]pyrazino[1,2-a][1,4]diazepine-6,12 (2H, 11H)-dione] |  | 53.62%
Cc1cc(OC(F)(F)F)ccc1OCC(=O)N1CCN2C(=O)c3cc(-c4cc(F)cc(C(F)(F)F)c4)ccc3NC(=O)[C@@H]2C1 [Example 141, (S)-8-(3-fluoro-5-(trifluoromethyl)phenyl)-2-(2-(2-methyl-4-(trifluoromethoxy)phenoxy)acetyl)-1,3,4,12a-tetrahydrobenzo[e]pyrazino[1,2-a][1,4]diazepine-6,12 (2H, 11H)-dione] | 36 to 54.5 | 95.53-115.85%
O=C1Nc2ccc(-c3cc(F)cc(C(F)(F)F)c3)cc2C(=O)N2CCN(C(=O)COc3ccc(C(F)(F)F)cc3Cl)C[C@@H]12 [Example 142, (S)-2-(2-(2-chloro-4-(trifluoromethyl)phenoxy)acetyl)-8-(3-fluoro-5-(trifluoromethyl)phenyl)-1,3,4,12a-tetrahydrobenzo[e]pyrazino[1,2-a][1,4]diazepine-6,12 (2H, 11H)-dione] | 48 | 80.32%
O=C1Nc2ccc(-c3cccc(C(F)(F)F)c3)cc2C(=O)N2CCN(C(=O)COc3ccc(C(F)(F)F)c(F)c3F)C[C@@H]12 [Example 146, (S)-2-(2-(2,3-difluoro-4-(trifluoromethyl)phenoxy)acetyl)-8-(3-(trifluoromethyl)phenyl)-1,3,4,12a-tetrahydrobenzo[e]pyrazino[1,2-a][1,4]diazepine-6,12 (2H, 11H)-dione] |  | 47.43%
Cc1cc(-c2ccc3c(c2)C(=O)N2CCN(C(=O)COc4ccc(OC(F)(F)F)cc4Cl)C[C@H]2C(=O)N3)cc(C(F)(F)F)c1 [Example 150, (S)-2-(2-(2-chloro-4-(trifluoromethoxy)phenoxy)acetyl)-8-(3-methyl-5-(trifluoromethyl)phenyl)-1,3,4,12a-tetrahydrobenzo[e]pyrazino[1,2-a][1,4]diazepine-6,12 (2H, 11H)-dione] | 22.2 | 103.32%

Second part, the compound after the results:

EC50 [nM] | % EFF vs. 1 nM INSL3 (b) | SMILES
 | 0.85% | Cc1cc(-c2ccc3c(c2)C(=O)N2CCN(C(=O)COc4ccc(OC(F)(F)F)cc4Cl)C[C@H]2CN3)cc(C(F)(F)F)c1.O=C(O)C(F)(F)F [Example 151, (R)-2-(2-(2-chloro-4-(trifluoromethoxy)phenoxy)acetyl)-8-(3-methyl-5-(trifluoromethyl)phenyl)-1,3,4,11,12,12a-hexahydrobenzo[e]pyrazino[1,2-a][1,4]diazepin-6 (2H)-one-2,2,2-trifluoroacetate]
39.1 | 108.89% | O=C1Nc2ccc(-c3cc(C(F)(F)F)cc(C(F)(F)F)c3)cc2C(=O)N2CCN(C(=O)COc3ccc(OC(F)(F)F)cc3Cl)C[C@@H]12 [Example 157, (S)-8-(3,5-Bis(trifluoromethyl)phenyl)-2-(2-(2-chloro-4-(trifluoromethoxy)phenoxy)acetyl)-1,3,4,12a-tetrahydrobenzo[e]pyrazino[1,2-a][1,4]diazepine-6,12 (2H, 11H)-dione]
121 | 130.93% | O=C1Nc2ccc(-c3cc(Cl)cc(C(F)(F)F)c3)cc2C(=O)N2CCN(C(=O)COc3ccc(OC(F)(F)F)cc3Br)C[C@@H]12 [Example 162, (S)-2-(2-(2-Bromo-4-(trifluoromethoxy)phenoxy)acetyl)-8-(3-chloro-5-(trifluoromethyl)phenyl)-1,3,4,12a-tetrahydrobenzo[e]pyrazino[1,2-a][1,4]diazepine-6,12 (2H, 11H)-dione]
 | 114.25% | O=C1Nc2ccc(-c3cc(Cl)cc(C(F)(F)F)c3)cc2C(=O)N2CCN(C(=O)COc3ccc(OC(F)(F)F)cc3Cl)C[C@@H]12 [Example 163, (S)-2-(2-(2-chloro-4-(trifluoromethoxy)phenoxy)acetyl)-8-(3-chloro-5-(trifluoromethyl)phenyl)-1,3,4,12a-tetrahydrobenzo[e]pyrazino[1,2-a][1,4]diazepine-6,12 (2H, 11H)-dione]
 | 126.02% | Cc1cc(OC(F)(F)F)ccc1OCC(=O)N1CCN2C(=O)c3cc(-c4cc(Cl)cc(C(F)(F)F)c4)ccc3NC(=O)[C@@H]2C1 [Example 164, (S)-8-(3-chloro-5-(trifluoromethyl)phenyl)-2-(2-(2-methyl-4-(trifluoromethoxy)phenoxy)acetyl)-1,3,4,12a-tetrahydrobenzo[e]pyrazino[1,2-a][1,4]diazepine-6,12 (2H, 11H)-dione]
236 | 132.67% | Cc1cc(OC(F)F)ccc1OCC(=O)N1CCN2C(=O)c3cc(-c4cccc(C(F)(F)F)c4)ccc3NC(=O)[C@@H]2C1 [Example 166, (S)-2-(2-(4-(difluoromethoxy)-2-methylphenoxy)acetyl)-8-(3-(trifluoromethyl)phenyl)-1,3,4,12a-tetrahydrobenzo[e]pyrazino[1,2-a][1,4]diazepine-6,12 (2H, 11H)-dione]
